Data published in paper PMC10323144, “Garbage in, garbage out: how reliable training data improved a virtual screening approach against SARS-CoV-2 MPro” (Frontiers in Pharmacology, 2023).
Square brackets hold non-standard residues; d marks the D form. Peptide text beside a SMILES is read from it. NMeF = CN[CH](Cc1ccccc1)C(=O)O

Target: SARS-CoV-2 MPro (Severe acute respiratory syndrome coronavirus 2, UniProt P0DTD1)
Assay: MPro activity assay (de-quenching of Edans fluorescence on cleavage of a Dabcyl/Edans peptide)
Format: biochemical
Conditions: in-house acquired data, internal screening under standardized conditions (128 compounds)

Compound | Class (MPro activity class)
CN(CCc1ccc(Cl)cc1)C(=S)c1ccccc1I [COV19183] | 0 (compounds with IC50 > 20 μM, percentage inhibition <80% at 20 µM or 50 μM, or percentage enzyme inhibition <50% at 10 µM were labelled as INACTIVE)
Cc1cccc(C(=O)Nc2ccccc2)c1I [COV19034] | 0 (compounds with IC50 > 20 μM, percentage inhibition <80% at 20 µM or 50 μM, or percentage enzyme inhibition <50% at 10 µM were labelled as INACTIVE)
COC(=O)CN1C(=O)C(C2C(=O)OCC2c2ccccc2)C1C=Cc1ccccc1 (stereo not shown) [CMD111] | 0 (compounds with IC50 > 20 μM, percentage inhibition <80% at 20 µM or 50 μM, or percentage enzyme inhibition <50% at 10 µM were labelled as INACTIVE)
O=c1c2ccccc2sn1Cc1ccc(C(F)(F)F)cc1 [COV19004] | 1 (Compounds with IC50 < 10 µM or with a percentage of enzyme inhibition >50% at 10 µM were labelled as ACTIVE)
O=C(Nc1nc2cc(Sc3ccccc3)ccc2[nH]1)c1ccccc1I [COV19029] | 0 (compounds with IC50 > 20 μM, percentage inhibition <80% at 20 µM or 50 μM, or percentage enzyme inhibition <50% at 10 µM were labelled as INACTIVE)
CCCCN(CCCC)C(=O)c1cnc(N)o1 [ZVR-103] | 0 (compounds with IC50 > 20 μM, percentage inhibition <80% at 20 µM or 50 μM, or percentage enzyme inhibition <50% at 10 µM were labelled as INACTIVE)
O=c1c2ccccc2sn1-c1ccc(C(F)(F)F)cc1 [COV19012] | 1 (Compounds with IC50 < 10 µM or with a percentage of enzyme inhibition >50% at 10 µM were labelled as ACTIVE)
CC(=O)OCC1OC(OC(C)=O)C(NC(=O)C(Cc2ccccc2)NC(=O)CN2CCCC(NC(=O)OC(C)(C)C)C2=O)C(OC(C)=O)C1OC(C)=O (stereo not shown) [COV19186] | 1 (Compounds with IC50 < 10 µM or with a percentage of enzyme inhibition >50% at 10 µM were labelled as ACTIVE)
COc1ccc2nc(N3C(=O)C(O)=C(C(=O)c4ccc5c(c4)OCCO5)C3c3ccc(OC)c(OC)c3)sc2c1 (stereo not shown) [ADRMC155] | 0 (compounds with IC50 > 20 μM, percentage inhibition <80% at 20 µM or 50 μM, or percentage enzyme inhibition <50% at 10 µM were labelled as INACTIVE)
COc1cc(C2C(C(=O)c3ccc4c(c3)OCCO4)=C(O)C(=O)N2c2nc3ccc(Cl)cc3s2)ccc1O (stereo not shown) [ADRMC158] | 0 (compounds with IC50 > 20 μM, percentage inhibition <80% at 20 µM or 50 μM, or percentage enzyme inhibition <50% at 10 µM were labelled as INACTIVE)
CCN(CC)c1ccc(-c2ccc(C(=O)OC)cc2)cc1 [Mal1] | 0 (compounds with IC50 > 20 μM, percentage inhibition <80% at 20 µM or 50 μM, or percentage enzyme inhibition <50% at 10 µM were labelled as INACTIVE)
CCCOC(=O)C(Cc1ccccc1)NC(=O)CN1CCCC(NC(=O)OC(C)(C)C)C1=O (stereo not shown) [COV19185] | 0 (compounds with IC50 > 20 μM, percentage inhibition <80% at 20 µM or 50 μM, or percentage enzyme inhibition <50% at 10 µM were labelled as INACTIVE)
O=S(=O)(C=Cc1ccc2no[n+]([O-])c2c1)c1ccc(F)cc1 [COV19500] | 1 (Compounds with IC50 < 10 µM or with a percentage of enzyme inhibition >50% at 10 µM were labelled as ACTIVE)
Nc1nc2c(s1)CC(NC(=O)c1cc3cc(F)ccc3[nH]1)CC2 (stereo not shown) [Cpd 48] | 0 (compounds with IC50 > 20 μM, percentage inhibition <80% at 20 µM or 50 μM, or percentage enzyme inhibition <50% at 10 µM were labelled as INACTIVE)
O=C1C(Oc2ccccc2)C(c2ccc(B(O)O)cc2)N1Cc1ccccc1 (stereo not shown) [Mal3] | 0 (compounds with IC50 > 20 μM, percentage inhibition <80% at 20 µM or 50 μM, or percentage enzyme inhibition <50% at 10 µM were labelled as INACTIVE)
CC(C)(C)OC(=O)N1CCC(Oc2cc(C(=O)NCC(=O)O)ccc2NC(=O)c2cc(Br)c(Br)[nH]2)CC1 [UL-DBT26] | 0 (compounds with IC50 > 20 μM, percentage inhibition <80% at 20 µM or 50 μM, or percentage enzyme inhibition <50% at 10 µM were labelled as INACTIVE)
O=S(=O)(C=Cc1ccc2no[n+]([O-])c2c1)c1ccc(Cl)cc1 [COV19499] | 1 (Compounds with IC50 < 10 µM or with a percentage of enzyme inhibition >50% at 10 µM were labelled as ACTIVE)
COc1ccc(C2C(C(=O)c3ccc(OC)c(OC)c3)=C(O)C(=O)N2c2nc3ccc(OC)cc3s2)cc1 (stereo not shown) [ADKPN162] | 0 (compounds with IC50 > 20 μM, percentage inhibition <80% at 20 µM or 50 μM, or percentage enzyme inhibition <50% at 10 µM were labelled as INACTIVE)
COc1ccc(C2C(C(=O)c3ccc4c(c3)OCCO4)=C(O)C(=O)N2c2nc3ccccc3s2)cc1 (stereo not shown) [ADKPN165] | 0 (compounds with IC50 > 20 μM, percentage inhibition <80% at 20 µM or 50 μM, or percentage enzyme inhibition <50% at 10 µM were labelled as INACTIVE)

Compound | Class (MPro activity class)
Cc1cc(Cl)cc(I)c1C(=O)NCc1ccccc1 [COV19039] | 0 (compounds with IC50 > 20 μM, percentage inhibition <80% at 20 µM or 50 μM, or percentage enzyme inhibition <50% at 10 µM were labelled as INACTIVE)
CCOC(=O)CN(C(=O)C1(C)CCc2c(C)c(O)c(C)c(C)c2O1)C(C(=O)NCCc1ccccc1)c1ccccc1 (stereo not shown) [vCOV194134] | 0 (compounds with IC50 > 20 μM, percentage inhibition <80% at 20 µM or 50 μM, or percentage enzyme inhibition <50% at 10 µM were labelled as INACTIVE)
O=C(O)C(=O)NC1CCc2nc(NC(=O)c3cc(Cl)c(Cl)[nH]3)sc2C1 (stereo not shown) [Cpd 51] | 0 (compounds with IC50 > 20 μM, percentage inhibition <80% at 20 µM or 50 μM, or percentage enzyme inhibition <50% at 10 µM were labelled as INACTIVE)
COc1ccc(C(=O)C2=C(O)C(=O)N(c3nc4ccc(Cl)cc4s3)C2c2ccc(F)cc2)cc1OC (stereo not shown) [ADKPN164] | 0 (compounds with IC50 > 20 μM, percentage inhibition <80% at 20 µM or 50 μM, or percentage enzyme inhibition <50% at 10 µM were labelled as INACTIVE)
O=c1c2ccccc2sn1-c1ccc([N+](=O)[O-])cc1 [COV19014] | 1 (Compounds with IC50 < 10 µM or with a percentage of enzyme inhibition >50% at 10 µM were labelled as ACTIVE)
COc1ccc(C2C(C(=O)c3ccc4c(c3)OCCO4)=C(O)C(=O)N2c2nc3ccc(C)cc3s2)cc1 (stereo not shown) [AD81] | 0 (compounds with IC50 > 20 μM, percentage inhibition <80% at 20 µM or 50 μM, or percentage enzyme inhibition <50% at 10 µM were labelled as INACTIVE)
CCCN1C(=O)C(O)=C(C(=O)c2ccccc2)C1c1ccccc1 (stereo not shown) [AD85] | 0 (compounds with IC50 > 20 μM, percentage inhibition <80% at 20 µM or 50 μM, or percentage enzyme inhibition <50% at 10 µM were labelled as INACTIVE)
CC(=NNC(N)=O)c1cc2ccccc2oc1=O [COV19144] | 0 (compounds with IC50 > 20 μM, percentage inhibition <80% at 20 µM or 50 μM, or percentage enzyme inhibition <50% at 10 µM were labelled as INACTIVE)
COC(=O)c1ccc(-c2ccc(C3C(Oc4ccccc4)C(=O)N3Cc3ccccc3)cc2)cc1 (stereo not shown) [Mal2] | 0 (compounds with IC50 > 20 μM, percentage inhibition <80% at 20 µM or 50 μM, or percentage enzyme inhibition <50% at 10 µM were labelled as INACTIVE)
CCNC(=S)NN=C(C)c1cc2ccccc2oc1=O [COV19138] | 0 (compounds with IC50 > 20 μM, percentage inhibition <80% at 20 µM or 50 μM, or percentage enzyme inhibition <50% at 10 µM were labelled as INACTIVE)
CC(C)(C)OC(=O)NC1CCCN(CC(=O)NC(Cc2ccccc2)C(=O)Nc2nc3cc(Sc4ccccc4)ccc3[nH]2)C1=O (stereo not shown) [COV19184] | 0 (compounds with IC50 > 20 μM, percentage inhibition <80% at 20 µM or 50 μM, or percentage enzyme inhibition <50% at 10 µM were labelled as INACTIVE)
Cc1nc(N)sc1C(=O)N(Cc1ccccc1)Cc1ccccc1 [ZVR-119] | 0 (compounds with IC50 > 20 μM, percentage inhibition <80% at 20 µM or 50 μM, or percentage enzyme inhibition <50% at 10 µM were labelled as INACTIVE)
COc1cc(C2C(C(=O)c3ccc4c(c3)OCCO4)=C(O)C(=O)N2c2nc3ccc(C)cc3s2)ccc1O (stereo not shown) [ADRMC152] | 0 (compounds with IC50 > 20 μM, percentage inhibition <80% at 20 µM or 50 μM, or percentage enzyme inhibition <50% at 10 µM were labelled as INACTIVE)
COc1cc(OC)cc(-c2cc3cnc(N)nc3nc2N)c1 [ZVR-100] | 0 (compounds with IC50 > 20 μM, percentage inhibition <80% at 20 µM or 50 μM, or percentage enzyme inhibition <50% at 10 µM were labelled as INACTIVE)
CC1NC(=O)C(Cc2ccccc2)N(C)C(=O)CNC(=O)C(Cc2ccccc2)N(C)C1=O (stereo not shown) [COV19097] (cyclo(G[NMeF]A[NMeF]); configuration not given here) | 0 (compounds with IC50 > 20 μM, percentage inhibition <80% at 20 µM or 50 μM, or percentage enzyme inhibition <50% at 10 µM were labelled as INACTIVE)
[O-][n+]1onc2ccc(C=CSc3ccc(F)cc3)cc21 [COV19501] | 1 (Compounds with IC50 < 10 µM or with a percentage of enzyme inhibition >50% at 10 µM were labelled as ACTIVE)
O=C(Nc1ccc(Cl)cc1)c1ccccc1I [COV19027] | 0 (compounds with IC50 > 20 μM, percentage inhibition <80% at 20 µM or 50 μM, or percentage enzyme inhibition <50% at 10 µM were labelled as INACTIVE)
O=c1c2ccccc2sn1-c1nc2cc(Sc3ccccc3)ccc2[nH]1 [COV19021] | 1 (Compounds with IC50 < 10 µM or with a percentage of enzyme inhibition >50% at 10 µM were labelled as ACTIVE)

Same assay, conditions: read-out: % activity MPro

Compound | activity at 10 µM [%] | activity at 25 µM [%]
O=CC(CC1CCNC1=O)NC(=O)C(CC1CCCCC1)NC(=O)c1cc2ccccc2[nH]1 (stereo not shown) [11a] | 104 ± 1.1 | 
O=C(O)C(=O)NC1CCc2nc(NC(=O)c3cc(Cl)c(Cl)[nH]3)sc2C1 (stereo not shown) [Cpd 51] |  | 107 ± 5.7

Same assay, conditions: read-out: MPro activity (%)

Compound | activity at 25 µM [%]
O=C(O)c1ccc2no[n+]([O-])c2c1 [7d] | 66 ± 4
[O-][S+](/C=C/c1ccc2nonc2c1)c1ccccc1 (stereo not shown) [16d] | 71.9 ± 11
COc1ccc2no[n+]([O-])c2c1 [6d] | 85.8 ± 3.5
O=S(=O)(/C=C\c1ccc2no[n+]([O-])c2c1)c1ccc(Cl)cc1 [13d] | 58 ± 0.3
Cc1ccc([S+]([O-])/C=C\c2ccc3no[n+]([O-])c3c2)cc1 (stereo not shown) [14d] | 73.8 ± 4.4

Same assay, conditions: read-out: MPro inhibition

Compound | inhibition at 25 µM [%]
[O-][n+]1cc[n+]([O-])c2ccccc21 [38d] | 20 to 40

Tested on: MPro
Assay: not given
Conditions: compiled from peer-reviewed sources (287 compounds) ref the 18 original articles; cited from earlier work

Compound | Class (MPro activity class)
O=CC(CC1CCNC1=O)NC(=O)C(CC1CCCCC1)NC(=O)c1cc2ccccc2[nH]1 (stereo not shown) [11a] | 1 (Compounds with IC50 < 10 µM or with a percentage of enzyme inhibition >50% at 10 µM were labelled as ACTIVE)
